# From patent US7993824B2, “Compositions and methods for determining the susceptibility of a pathogenic virus to protease inhibitors” (Monogram Biosciences, Inc., priority 2002, dated 2011)
# How the values were obtained:
# [1] = tested on: HIV-1 from the patient sample; assay: PHENOSENSE HIV phenotypic susceptibility assay on patient plasma samples (IC50 fold change vs NL4-3 reference); format: cell-based; settings: for fold change in IC50: patient sample with L10I, I13V, E35D, M36I, R41K, I50V, L63P, A71V, N88N/S, L90M in HIV protease, vs NL4-3 reference
# Experimental: In a preferred embodiment, the phenotypic analysis is performed using PHENOSENSE™ (ViroLogic Inc., South San Francisco, Calif.). See Petropoulos et al., 2000, Antimicrob. Agents Chemother. 44:920-928; U.S. Pat. Nos. 5,837,464 and 6,242,187. PHENOSENSE™ is a phenotypic assay that achieves the benefits of phenotypic testing and overcomes the drawbacks of previous assays. Because the assay has been automated, PHENOSENSE™ offers higher throughput under controlled conditions. The result is an assay that accurately defines the susceptibility profile of a patient's HIV isolates to all currently available antiretroviral drugs, and delivers results directly to the physician within about 10 to about 15 days of sample receipt. PHENOSENSE™ is accurate and can obtain results with only one round of viral replication, thereby avoiding selection of subpopulations of virus. The results are quantitative, measuring varying degrees of drug susceptibility, and sensitive—the test can be performed on blood specimens with a viral load of about 500 copies/mL and can detect minority populations of some drug-resistant virus at concentrations of 10% or less of total viral population. Furthermore, the results are reproducible and can vary by less than about 1.4-2.5 fold, depending on the drug, in about 95% of the assays performed.
# PHENOSENSE™ can be used with nucleic acids from amplified viral gene sequences. As discussed in Section 5.4.1, the sample containing the virus may be a sample from a human or an animal infected with the virus or a sample from a culture of viral cells. In one embodiment, the viral sample comprises a genetically modified laboratory strain.
# (§1) A resistance test vector (“RTV”) can then be constructed by incorporating the amplified viral gene sequences into a replication defective viral vector by using any method known in the art of incorporating gene sequences into a vector. In one embodiment, restrictions enzymes and conventional cloning methods are used. See Sambrook et al., 2001, Molecular Cloning: A Laboratory Manual, Cold Spring Harbor Laboratory, 3rd ed., NY; and Ausubel et al., 1989, Current Protocols in Molecular Biology, Greene Publishing Associates and Wiley Interscience, NY. In a preferred embodiment, ApaI and PinAI restriction enzymes are used. Preferably, the replication defective viral vector is the indicator gene viral vector (“IGVV”). In a preferred embodiment, the viral vector contains a means for detecting replication of the RTV. Preferably, the viral vector contains a luciferase expression cassette.
# (§2) The assay can be performed by first co-transfecting host cells with RTV DNA and a plasmid that expresses the envelope proteins of another retrovirus, for example, amphotropic murine leukemia virus (MLV). Following transfection, virus particles can be harvested and used to infect fresh target cells. The completion of a single round of viral replication can be detected by the means for detecting replication contained in the vector. In a preferred embodiment, the completion of a single round of viral replication results in the production of luciferase. Serial concentrations of anti-viral agents can be added at either the transfection step or the infection step.
# (§3) Susceptibility to the anti-viral agent can be measured by comparing the replication of the vector in the presence and absence of the anti-viral agent. For example, susceptibility to the anti-viral agent can be measured by comparing the luciferase activity in the presence and absence of the anti-viral agent. Susceptible viruses would produce low levels of luciferase activity in the presence of antiviral agents, whereas viruses with reduced susceptibility would produce higher levels of luciferase activity.
# The phenotypic assay was conducted using the PHENOSENSE™ (Virologic, South San Francisco, Calif.) HIV assay (Petropoulos et al., 2000, Antimicrob. Agents Chemother. 44:920-928; U.S. Pat. Nos. 5,837,464 and 6,242,187). […]
# [2] = tested on: HIV; settings: patients using amprenavir as their first PI; as low as; cited from earlier work
# [3] = tested on: HIV-1 clones containing I50V; assay: PhenoSense assay on protease clones (I50V; I50V+L90M; I50V+N88S) isolated from resistance test vector pools of one patient sample; format: cell-based; settings: for mean fold change (FC), reduction in susceptibility: clones with I50V only, or I50V plus L90M
# Excerpt: Drug names are abbreviated as follows: APV, amprenavir; IDV, indinavir; LPV, lopinavir; NFV, nelfinavir; RTV, ritonavir; SQV, saquinavir; ATV, atazanavir (BMS 232632).
# as §1, §2, §3
# Clones from the population were selected so as to isolate some clones with the N88S mutation and some without it. Resistance test vector pools constructed from the original plasma sample (Petropoulos et al., 2000, Antimicrob Agents Chemother 44:920-8) were transformed into E. Coli, and plasmid DNA from individual colonies was screened in the PhenoSense® assay for […].
# [4] = I50V+N88S clones vs I50V clones
SMILES,fold change in IC50 [1] [fold],"mean fold change (FC), reduction in susceptibility [3]",also measured
CC(C)CN(C[C@@H](O)[C@H](Cc1ccccc1)NC(=O)O[C@H]1CCOC1)S(=O)(=O)c1ccc(N)cc1 [amprenavir],4.1,13-17 FC,"99th percentile for the distribution of FC in genotypically wild-type viruses ([1]; genotypically wild-type viruses, PhenoSense Assay): 2.1 fold; reductions in susceptibility in patients who experienced viral load rebound [2]: 2-3 fold; fold change for a virus containing I50V, but not N88S ([3]; FIG. 7 bar 1 for APV): about 17 fold; fold change when the virus contained N88S in addition to I50V ([3]; FIG. 7 bar 2 for APV, wild type level): 1.2 FC; factor by which susceptibility was increased when N88S was present in combination with I50V [3, 4]: 14.5"
COC(=O)N[C@H](C(=O)N[C@@H](Cc1ccccc1)[C@@H](O)CN(Cc1ccc(-c2ccccn2)cc1)NC(=O)[C@@H](NC(=O)OC)C(C)(C)C)C(C)(C)C [atazanavir],–,–,"fold increase in IC50 in the presence of N88S (susceptibility decreased) [3, 4]: 2.3 fold"
CC(C)(C)NC(=O)[C@@H]1CN(Cc2cccnc2)CCN1C[C@@H](O)C[C@@H](Cc1ccccc1)C(=O)N[C@H]1c2ccccc2C[C@H]1O [indinavir],1.4,–,–
Cc1cccc(C)c1OCC(=O)N[C@@H](Cc1ccccc1)[C@@H](O)C[C@H](Cc1ccccc1)NC(=O)[C@H](C(C)C)N1CCCNC1=O [lopinavir],3.3,7-9 FC,"fold decrease in IC50 in the presence of N88S (susceptibility increased) [3, 4]: 1.7 fold"
Cc1c(O)cccc1C(=O)N[C@@H](CSc1ccccc1)[C@H](O)CN1C[C@H]2CCCC[C@H]2C[C@H]1C(=O)NC(C)(C)C [nelfinavir],5.3,7-10 FC,"fold increase in IC50 in the presence of N88S (susceptibility decreased) [3, 4]: 2.1 fold"
CC(C)c1nc(CN(C)C(=O)N[C@H](C(=O)N[C@@H](Cc2ccccc2)C[C@H](O)[C@H](Cc2ccccc2)NC(=O)OCc2cncs2)C(C)C)cs1 [ritonavir],11,12-20 FC,"fold decrease in IC50 in the presence of N88S (susceptibility increased) [3, 4]: 1.4 fold"
CC(C)(C)NC(=O)[C@@H]1C[C@@H]2CCCC[C@@H]2CN1C[C@@H](O)[C@H](Cc1ccccc1)NC(=O)[C@H](CC(N)=O)NC(=O)c1ccc2ccccc2n1 [saquinavir],3.6,–,increase in FC with L90M ([3]; I50V plus L90M clones vs I50V only clones): 1.8 fold
